Results published in patent US20250346550A1, “METHODS OF MODULATING ENDONUCLEASE G USING RESVERATROL AND ITS DERIVATIVES” (THE REGENTS OF THE UNIVERSITY OF COLORADO A BODY CORPORATE, priority 2022, published 2025).

Tests used:
Assay type in all cases: in vivo, C. elegans
[1] = system: α-synuclein-induced dopaminergic neuronal death in baIn11 animals; experiment: α-synuclein-based Parkinson's Disease model, DA neuronal death; conditions: 100 μM, adult day 2 baIn11 animals vs 0.25% ethanol
Text: FIG. 8. […] In each experiment, 300 animals were scored to determine the percentage of animals losing at least one dopaminergic neuron in the head. Data are mean±s.e.m. *P<0.05; ***P<0.001, two-sided, unpaired t-test.
FIG. 13. […] In each experiment, 300 animals were scored to determine the percentage of animals losing at least one of the six dopaminergic neurons in the head. Data are mean±s.e.m. ****P<0.001, two-sided, unpaired t-test.
In addition to PME and apoptosis, EndoG was previously shown to play an important role in mediating dopaminergic (DA) neuronal death induced by expression of human α-synuclein, which is widely considered to be a major proponent of Parkinson's disease. However, the mechanism by which EndoG mediates α-synuclein-induced neurodegeneration is unclear. In a C. elegans α-synuclein-based Parkinson's Disease model, co-expression of GFP and human α-synuclein in C. elegans dopaminergic neurons under the control of the promoter of the dat-1 gene, which encodes a dopamine transporter, from an integrated transgene baIn11 (Pdat-1::gfp/Pdat-1::α-synuclein) caused DA neuronal death in 30% of adult baIn11 animals (FIG. 8a). The cps-6(tm3222) mutation blocked DA neuronal death in adult baIn11 animals (FIG. 8a), confirming that CPS-6 is important for α-synuclein-induced DA neuronal death.

[2] = system: germline tumor in daf-16(mu86); cki-2(ok2105); glp-1(ar202) mutant (ET507); experiment: germline tumor model (ET507); conditions: 100 μM, ET507 at 20° C., vs 0.25% ethanol (FIG. 14)
Protocol: FIG. 9. Cis-resveratrol inhibits and trans-resveratrol promotes germline tumor formation. Tumor size and tumor occurring frequency of the daf-16(mu86); cki-2(0k2105); glp-1 (ar202) mutant grown at 20° C. and treated with 1% ethanol (Mock), 200 μM cis-resveratrol (Cis), and 200 μM trans-resveratrol (Trans), respectively, are shown. Tumor assays were performed in triplicate with 100 animals per replicate. a, A five-stage classification was created to measure the tumor size in adult day 5 animals under the Normaski optic. Score 1 denotes the normal gonads seen in wild-type animals. Score 5 denotes enlarged gonads full of mitotic germ cells and without any egg or oocyte. Score 2-4 denote partially enlarged gonads. b, Tumor frequency indicates the percentage of animals with enlarged gonads (score 5). Data from three independent biological replicates are shown as mean±SEM. *P<0.05; **P<0.01; ***P<0.001, two-sided, unpaired t-test.
FIG. 14. stabilized cis-resveratrol inhibits germline tumor formation as well as cis-resveratrol. Tumor occurring frequency of the daf-16 (mu86); cki-2 (0k2105); glp-1 (ar202) mutant (ET507) grown at 20° C. and treated with 0.25% ethanol (Mock), 100 μM cis-resveratrol, and 100 μM Stabilized cis-resveratrol, respectively, are shown. Tumor assays were performed in triplicate with 100 animals per replicate. Data are mean±s.e.m. ****P<0.001, two-sided, unpaired t-test
The present inventors tested whether resveratrol isomers affect tumorigenesis in a C. elegans germline tumor model (ET507), in which three cell growth genes, daf-16, cki-2, and glp-1, are mutated, leading to uncontrolled germ cell proliferation and germline tumor.

[3] = toxicity observed in animal assays; conditions: neuronal death and tumor assays, 100 μM
Text: As described above, Applicant's successfully synthesized a new compound, stabilized cis-resveratrol.

SMILES: O=C1CCC(c2ccc(O)cc2)=C1c1cc(O)cc(O)c1 [stabilized cis-resveratrol]
- effect on α-synuclein-induced DA neuronal death [1]: comparable activity as cis-resveratrol in strongly suppressing
- germline tumor formation [2]: comparable activity as cis-resveratrol in strongly suppressing
- toxicity in animal assays [3]: No obvious toxicity was observed
